Reference: PubChem BioAssay (NCI)
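A five-concentration, 48-hour dose response in 96-well plates underlies each endpoint, interpolated linearly between surrounding concentrations. Here, GI50 denotes the concentration required for 50% inhibition of growth. TGI: total growth inhibition.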

Assays:
Experiment in all cases: NCI anticancer screen, dose series, 48 h
786-0 renal = system: 786-0 renal
A498 renal = system: A498 renal
A549 NSCLC = system: A549 NSCLC
ACHN renal = system: ACHN renal
BT-549 breast = system: BT-549 breast
CAKI-1 renal = system: CAKI-1 renal
CCRF-CEM leukemia = system: CCRF-CEM leukemia
COLO 205 colon = system: COLO 205 colon
HCT-116 colon = system: HCT-116 colon
HCT-15 colon = system: HCT-15 colon
HL-60(TB) leukemia = system: HL-60(TB) leukemia
HOP-62 NSCLC = system: HOP-62 NSCLC
HOP-92 NSCLC = system: HOP-92 NSCLC
HS 578T breast = system: HS 578T breast
HT29 colon = system: HT29 colon
IGROV1 ovarian = system: IGROV1 ovarian
K-562 leukemia = system: K-562 leukemia
LOX IMVI melanoma = system: LOX IMVI melanoma
M14 melanoma = system: M14 melanoma
MALME-3M melanoma = system: MALME-3M melanoma
MCF7 breast = system: MCF7 breast
MDA-MB-231 breast = system: MDA-MB-231 breast
MDA-MB-435 = system: MDA-MB-435
MOLT-4 leukemia = system: MOLT-4 leukemia
NCI-H226 lung = system: NCI-H226 lung
NCI-H23 lung = system: NCI-H23 lung
NCI-H460 lung = system: NCI-H460 lung
NCI-H522 lung = system: NCI-H522 lung
NCI/ADR-RES ovarian = system: NCI/ADR-RES ovarian
OVCAR-4 ovarian = system: OVCAR-4 ovarian
OVCAR-5 ovarian = system: OVCAR-5 ovarian
OVCAR-8 ovarian = system: OVCAR-8 ovarian
PC-3 prostate = system: PC-3 prostate
RPMI-8226 leukemia = system: RPMI-8226 leukemia
RXF 393 renal = system: RXF 393 renal
SF-295 CNS = system: SF-295 CNS
SF-539 CNS = system: SF-539 CNS
SK-MEL-2 melanoma = system: SK-MEL-2 melanoma
SK-MEL-28 melanoma = system: SK-MEL-28 melanoma
SK-MEL-5 melanoma = system: SK-MEL-5 melanoma
SK-OV-3 ovarian = system: SK-OV-3 ovarian
SN12C renal = system: SN12C renal
SNB-19 CNS = system: SNB-19 CNS
SNB-75 CNS = system: SNB-75 CNS
SW-620 colon = system: SW-620 colon
T-47D breast = system: T-47D breast
TK-10 renal = system: TK-10 renal
U251 CNS = system: U251 CNS
UACC-257 melanoma = system: UACC-257 melanoma
UACC-62 melanoma = system: UACC-62 melanoma
UO-31 renal = system: UO-31 renal

Question: For CCN(CC)CCOc1ccc(-c2nc3cc(Cl)ccc3s2)cc1, which GI50 (786-0 renal) is on record?
Answer: Its GI50 is 1.68 µM.

Question: What about the TGI (786-0 renal) of the same compound?
Answer: The TGI was 3.14 µM.

Question: What about the GI50 (A498 renal) of the same compound?
Answer: The GI50 was 1.66 µM.

Question: What about the TGI (A498 renal) of the same compound?
Answer: Its TGI is 3.83 µM.

Question: And the GI50 (A549 NSCLC)?
Answer: Its GI50 is 1.75 µM.

Question: What about the TGI (A549 NSCLC) of the same compound?
Answer: Its TGI is 3.47 µM.

Question: And the GI50 (ACHN renal)?
Answer: Its GI50 is 1.58 µM.

Question: What about the TGI (ACHN renal) of the same compound?
Answer: The TGI was 2.94 µM.

Question: What about the GI50 (BT-549 breast) of the same compound?
Answer: The GI50 was 1.83 µM.

Question: And the TGI (BT-549 breast)?
Answer: Its TGI is 5.73 µM.

Question: What about the GI50 (CAKI-1 renal) of the same compound?
Answer: Its GI50 is 1.47 µM.

Question: And the TGI (CAKI-1 renal)?
Answer: The TGI was 2.84 µM.

Question: What about the GI50 (CCRF-CEM leukemia) of the same compound?
Answer: Its GI50 is 0.565 µM.

Question: And the TGI (CCRF-CEM leukemia)?
Answer: The TGI was 3.14 µM.

Question: What about the GI50 (COLO 205 colon) of the same compound?
Answer: Its GI50 is 1.45 µM.

Question: And the TGI (COLO 205 colon)?
Answer: Its TGI is 2.76 µM.

Question: What about the GI50 (HCT-116 colon) of the same compound?
Answer: Its GI50 is 1.25 µM.

Question: And the TGI (HCT-116 colon)?
Answer: The TGI was 2.5 µM.

Question: What about the GI50 (HCT-15 colon) of the same compound?
Answer: Its GI50 is 1.19 µM.

Question: And the TGI (HCT-15 colon)?
Answer: The TGI was 2.42 µM.

Question: And the GI50 (HL-60(TB) leukemia)?
Answer: The GI50 was 1.56 µM.

Question: What about the TGI (HL-60(TB) leukemia) of the same compound?
Answer: Its TGI is 5.12 µM.

Question: And the GI50 (HOP-62 NSCLC)?
Answer: The GI50 was 1.74 µM.

Question: What about the TGI (HOP-62 NSCLC) of the same compound?
Answer: Its TGI is 3.25 µM.

Question: What about the GI50 (HOP-92 NSCLC) of the same compound?
Answer: The GI50 was 1.22 µM.

Question: And the TGI (HOP-92 NSCLC)?
Answer: The TGI was 4.2 µM.

Question: What about the GI50 (HS 578T breast) of the same compound?
Answer: The GI50 was 1.62 µM.

Question: What about the TGI (HS 578T breast) of the same compound?
Answer: The TGI was 3.72 µM.

Question: And the GI50 (HT29 colon)?
Answer: The GI50 was 0.6 µM.

Question: And the TGI (HT29 colon)?
Answer: Its TGI is 1.84 µM.

Question: What about the GI50 (IGROV1 ovarian) of the same compound?
Answer: Its GI50 is 1.85 µM.

Question: What about the TGI (IGROV1 ovarian) of the same compound?
Answer: Its TGI is 3.61 µM.

Question: What about the GI50 (K-562 leukemia) of the same compound?
Answer: The GI50 was 1.26 µM.

Question: What about the TGI (K-562 leukemia) of the same compound?
Answer: Its TGI is greater than 100 µM.

Question: What about the GI50 (LOX IMVI melanoma) of the same compound?
Answer: The GI50 was 1.39 µM.

Question: What about the TGI (LOX IMVI melanoma) of the same compound?
Answer: Its TGI is 2.68 µM.

Question: What about the GI50 (M14 melanoma) of the same compound?
Answer: The GI50 was 1.73 µM.

Question: What about the TGI (M14 melanoma) of the same compound?
Answer: The TGI was 3.21 µM.

Question: What about the GI50 (MALME-3M melanoma) of the same compound?
Answer: The GI50 was 1.45 µM.

Question: What about the TGI (MALME-3M melanoma) of the same compound?
Answer: Its TGI is 2.8 µM.

Question: What about the GI50 (MCF7 breast) of the same compound?
Answer: Its GI50 is 1.45 µM.

Question: What about the TGI (MCF7 breast) of the same compound?
Answer: The TGI was 2.83 µM.

Question: What about the GI50 (MDA-MB-231 breast) of the same compound?
Answer: The GI50 was 1.47 µM.

Question: What about the TGI (MDA-MB-231 breast) of the same compound?
Answer: The TGI was 2.92 µM.

Question: What about the GI50 (MDA-MB-435) of the same compound?
Answer: The GI50 was 1.65 µM.

Question: What about the TGI (MDA-MB-435) of the same compound?
Answer: The TGI was 3.18 µM.

Question: What about the GI50 (MOLT-4 leukemia) of the same compound?
Answer: Its GI50 is 2.24 µM.

Question: And the TGI (MOLT-4 leukemia)?
Answer: Its TGI is 10.9 µM.

Question: And the GI50 (NCI-H226 lung)?
Answer: Its GI50 is 2.02 µM.

Question: What about the TGI (NCI-H226 lung) of the same compound?
Answer: The TGI was 4.43 µM.

Question: What about the GI50 (NCI-H23 lung) of the same compound?
Answer: Its GI50 is 1.64 µM.

Question: And the TGI (NCI-H23 lung)?
Answer: The TGI was 3.32 µM.

Question: What about the GI50 (NCI-H460 lung) of the same compound?
Answer: The GI50 was 1.59 µM.

Question: And the TGI (NCI-H460 lung)?
Answer: The TGI was 2.93 µM.

Question: And the GI50 (NCI-H522 lung)?
Answer: Its GI50 is 1.8 µM.

Question: What about the TGI (NCI-H522 lung) of the same compound?
Answer: The TGI was 3.53 µM.

Question: What about the GI50 (NCI/ADR-RES ovarian) of the same compound?
Answer: The GI50 was 1.97 µM.

Question: And the TGI (NCI/ADR-RES ovarian)?
Answer: Its TGI is 3.87 µM.

Question: And the GI50 (OVCAR-4 ovarian)?
Answer: Its GI50 is 1.65 µM.

Question: What about the TGI (OVCAR-4 ovarian) of the same compound?
Answer: Its TGI is 7.21 µM.

Question: What about the GI50 (OVCAR-5 ovarian) of the same compound?
Answer: The GI50 was 1.6 µM.

Question: What about the TGI (OVCAR-5 ovarian) of the same compound?
Answer: Its TGI is 3.09 µM.

Question: And the GI50 (OVCAR-8 ovarian)?
Answer: The GI50 was 1.99 µM.

Question: And the TGI (OVCAR-8 ovarian)?
Answer: Its TGI is 4.02 µM.

Question: And the GI50 (PC-3 prostate)?
Answer: Its GI50 is 1.74 µM.

Question: And the TGI (PC-3 prostate)?
Answer: The TGI was 4.61 µM.

Question: What about the GI50 (RPMI-8226 leukemia) of the same compound?
Answer: Its GI50 is 0.715 µM.

Question: And the TGI (RPMI-8226 leukemia)?
Answer: Its TGI is 3.34 µM.

Question: And the GI50 (RXF 393 renal)?
Answer: The GI50 was 1.01 µM.

Question: And the TGI (RXF 393 renal)?
Answer: The TGI was 2.77 µM.

Question: And the GI50 (SF-295 CNS)?
Answer: The GI50 was 1.38 µM.

Question: What about the TGI (SF-295 CNS) of the same compound?
Answer: Its TGI is 2.77 µM.

Question: What about the GI50 (SF-539 CNS) of the same compound?
Answer: Its GI50 is 1.6 µM.

Question: And the TGI (SF-539 CNS)?
Answer: Its TGI is 2.94 µM.

Question: What about the GI50 (SK-MEL-2 melanoma) of the same compound?
Answer: Its GI50 is 1.89 µM.

Question: What about the TGI (SK-MEL-2 melanoma) of the same compound?
Answer: The TGI was 3.59 µM.

Question: And the GI50 (SK-MEL-28 melanoma)?
Answer: The GI50 was 1.99 µM.

Question: What about the TGI (SK-MEL-28 melanoma) of the same compound?
Answer: The TGI was 3.94 µM.

Question: And the GI50 (SK-MEL-5 melanoma)?
Answer: The GI50 was 1.54 µM.

Question: What about the TGI (SK-MEL-5 melanoma) of the same compound?
Answer: Its TGI is 2.88 µM.

Question: What about the GI50 (SK-OV-3 ovarian) of the same compound?
Answer: Its GI50 is 1.77 µM.

Question: What about the TGI (SK-OV-3 ovarian) of the same compound?
Answer: Its TGI is 3.84 µM.

Question: And the GI50 (SN12C renal)?
Answer: Its GI50 is 2.04 µM.

Question: And the TGI (SN12C renal)?
Answer: The TGI was 4.79 µM.

Question: And the GI50 (SNB-19 CNS)?
Answer: The GI50 was 2.26 µM.

Question: And the TGI (SNB-19 CNS)?
Answer: The TGI was 5.36 µM.

Question: What about the GI50 (SNB-75 CNS) of the same compound?
Answer: The GI50 was 1.21 µM.

Question: And the TGI (SNB-75 CNS)?
Answer: Its TGI is 2.65 µM.

Question: And the GI50 (SW-620 colon)?
Answer: The GI50 was 1.53 µM.

Question: And the TGI (SW-620 colon)?
Answer: The TGI was 2.93 µM.

Question: And the GI50 (T-47D breast)?
Answer: The GI50 was 1.5 µM.

Question: What about the TGI (T-47D breast) of the same compound?
Answer: The TGI was 4.11 µM.

Question: And the GI50 (TK-10 renal)?
Answer: The GI50 was 1.31 µM.

Question: And the TGI (TK-10 renal)?
Answer: The TGI was 2.61 µM.

Question: And the GI50 (U251 CNS)?
Answer: The GI50 was 1.58 µM.

Question: What about the TGI (U251 CNS) of the same compound?
Answer: The TGI was 2.99 µM.

Question: What about the GI50 (UACC-257 melanoma) of the same compound?
Answer: The GI50 was 1.78 µM.

Question: And the TGI (UACC-257 melanoma)?
Answer: The TGI was 3.62 µM.

Question: What about the GI50 (UACC-62 melanoma) of the same compound?
Answer: The GI50 was 1.78 µM.

Question: What about the TGI (UACC-62 melanoma) of the same compound?
Answer: Its TGI is 3.33 µM.

Question: What about the GI50 (UO-31 renal) of the same compound?
Answer: The GI50 was 1.66 µM.

Question: What about the TGI (UO-31 renal) of the same compound?
Answer: Its TGI is 3.37 µM.
